Source: patent publication US20170119020A1, “METHOD OF FEEDING AN ANIMAL” (CARGILL, INCORPORATED, priority 2014, published 2017)

Tests used:
sows (PIC) = assay: Sow performance (Example 10); assay type: in vivo, pig; conditions: for Culled sows, n: reproductive failure: 13 sows; for Wean-to-remate interval / Weaning-to-estrus interval: Subsequent performance; for Farrowing rate (%), subsequent performance: next cycle
Experimental: The trial was conducted at a farm in Poland. In general the housing and management conditions on the chosen workplace were considered representative for the geographical region. The breeding, gestation, and farrowing facilities of the farm were fully enclosed buildings with rooms that were ventilated and heated to maintain a minimum comfort zone temperature for the sows. Testing was performed on sows (primiparous and multiparous) of the same type of crossing (PIC). The trial comprised 52 sows in a system of continuous farrowing. Each group was consist of 13 animals. The trial ran from day 1 of pregnancy to remating in the next cycle. There were two dietary compositions: LP 0-90 d, LK-90 d of gestation-weaning. Feed fed throughout the study was manufactured in the feed mill of the farm. The feed produced was complete feeds according to the standard feeding management procedures on the participating farm. Feed consistency was mash. […] Each group was fed with complete diets for pregnant sows (0-90 d) and for lactation sows (90 d of gestation-weaning) with different inclusion of vitamin E and tested product (see TABLE 43A) and lactation diets (see TABLE 43B) The performance following criteria were monitored during the trial: (i) Sows response criteria (actual parity, farrowing rate, culled sows—number and reasons, wean-to-mating interval, farrowing rate in the next cycle); (ii) litter response criteria (number of piglets, total, alive, stillborn, mummies; weight of piglets and litters; survival). The following biochemical (blood) criteria were monitored during the trial for the sows (mating, farrowing and weaning), piglets 21st day: (i) glutathione peroxidase (GPx) activity; (ii) superoxide dismutase (SOD) activity; (iii) total antioxidant status (TAS); (iv) vitamin E content; (v) vitamin A content.

sows and piglets = assay: Superoxide dismutase (SOD) activity in serum of sows and piglets (Example 10); assay type: in vivo, pig; conditions: for Activity of superoxide dismutase (SOD) in serum of piglets: piglets at 21 days
Description: The performance following criteria were monitored during the trial: (i) Sows response criteria (actual parity, farrowing rate, culled sows—number and reasons, wean-to-mating interval, farrowing rate in the next cycle); (ii) litter response criteria (number of piglets, total, alive, stillborn, mummies; weight of piglets and litters; survival). The following biochemical (blood) criteria were monitored during the trial for the sows (mating, farrowing and weaning), piglets 21st day: (i) glutathione peroxidase (GPx) activity; (ii) superoxide dismutase (SOD) activity; (iii) total antioxidant status (TAS); (iv) vitamin E content; (v) vitamin A content.
To determine the oxidative status, the blood samples were collected from sows and piglets into tubes with lithium anticoagulant—received whole blood for analysis. At the same time blood samples were taken for blood clot. They were centrifuged (1500 rpm, 15 Temp. 4° C.) and obtained serum was pipetted into separate tubes.
In studies of oxidative status of sows and piglets were used suitable to each of the indicators, the reagent kits from Sigma-Aldrich. Determination was made in accordance with the descriptions of the rules and procedures specified by the manufacturer.
The content of the TAS (total antioxidant status) were determined using the Antioxidant assay kit (Cat. No CS0790), the activity of SOD (superoxide dismutase) was determined using SOD determination kit 19160, the activity of GPx (glutathione Peroxide assai Cellular Activity Kit) Cat. No CGP1. The content of vitamins A and E by McMurray and Blanchflower 1979 (Journal of Chromatography 178, 525-531.). TAS
Serum samples (20 ul) in duplicate were incubated at 37° C. for 20 minutes with the working solution WST (tetrazolium sodium salt, 2-(4-lodophenyl)-3 (4-nitrophenyl0-5-(2,4-disulfophenyl) 2H-tetrazolium, monosodium salt) (200 pl) and the enzyme working solution (20 pl). Simultaneously sample blanks were performed (two reagents, and blank for each sample) and a calibration curve based on serial dilutions of SOD in a range of 200 to 0,001 U/ml. Absorbance of the blank, standards and test samples read on a spectrophotometer at a wavelength of 450 nm. WST produces a water-soluble formazan dye upon reduction with a superoxide anion. The rate of the reduction with O2 are linearly related to the xanthine oxidase (XO) activity. The SOD activity is measured as the degree of blocking the formation of the formazan dye.

[1] = test system: eggs and hatched chickens of Cobb broiler breeders; assay: Hatchability, fertility and chick quality of eggs of Example 1 (Example 2); assay type: in vivo, chicken
Experimental: The eggs were stored based on breeder pen and storage day. Eggs were allocated to twelve trays and nine blocks, with each block representing a storage day. At E17, all eggs were candled and at E18, eggs were transferred from the incubator […] to […] baskets. […] (64.4° F.) and a relative humidity of 75%. At the start of the incubation period, the eggs were weighed and allocated into blocks, each block representing a storage day. Each block consisted of twelve experimental units, with each experimental unit indicating a group of ten eggs. Only intact eggs were included; cracked, dirty, or eggs with deformed shells were excluded from the experiment. The eggs were placed in a NatureForm NMC 2340 Incubator with automatic control of temperature and relative humidity. From E0 until E18, the eggs were placed in setter trolleys, which consist of two shelves with a capacity for thirteen trays each. Each tray has three flats of thirty eggs. During this period, the incubator start temperature was set to 37.5° C. and relative humidity to 54%. […] After the setter period (E0-E18), eggs were transferred to baskets in the […] based on the blocking structure in the setter. The eggs were placed into subdivisions of a hatching crate, per replicate, and following tray order per block. Each […] trolley has twelve baskets with a capacity for 180 eggs each. […] Egg weights were recorded per experimental unit at E0. At hatch (E21) the number of dead chickens, dead embryos and […] (internal and external) were recorded. Remaining non-hatched eggs were opened to determine age and cause of death. The number of hatched chickens was recorded per replicate, as well as average chick weight. Sex was determined by cloaca sexing, performed by a professional chicken-sexer. Hatchability was calculated as percentage of total and of fertile eggs (eggs which contained living embryos after E17). […] Only chickens with an average body weight, completely dry, showing active movement and with a good navel score were selected. […] Sample chickens were individually weighed and killed by cervical dislocation to measure remaining yolk-sac weights, yolk-free body mass (“YFBM”), chick length, and shank length of both shanks. Relative asymmetry was calculated according to the following formula: RA=(|L-R|/[(L+R)/2])×100.

[2] = Group 2: vitamin E 50/75 mg/kg diet
[3] = Group 3: vitamin E 100/150 mg/kg diet
[4] = eggs of 28-29 week breeders of Example 1

Question: Which “Farrowing rate (%)” value (sows (PIC); [2]) does the source give for `Cc1c(C)c2c(c(C)c1O)CCC(C)(CCCC(C)CCCC(C)CCCC(C)C)O2` (racemic) [Vitamin E, DL-α-tocopherol] here?
Answer: Its value is 84.62%.

Question: What about the “Culled sows, n: reproductive failure” value (sows (PIC); [2]) of the same molecule?
Answer: Its value is 2.

Question: And the “Farrowing rate (%)” value (sows (PIC); [3])?
Answer: Its value is 84.62%.

Question: And the “Culled sows, n: reproductive failure” value (sows (PIC); [3])?
Answer: Its value is 2.

Question: And the Wean-to-remate interval (sows (PIC); [2])?
Answer: Its Wean-to-remate interval is 9.89 days.

Question: And the Weaning-to-estrus interval (sows (PIC); [2])?
Answer: The Weaning-to-estrus interval was 5.09 days.

Question: And the Wean-to-remate interval (sows (PIC); [3])?
Answer: Its Wean-to-remate interval is 7.70 days.

Question: And the Weaning-to-estrus interval (sows (PIC); [3])?
Answer: The Weaning-to-estrus interval was 5.64 days.

Question: And the “Farrowing rate (%), subsequent performance” value (sows (PIC); [2])?
Answer: Its value is 80.00%.

Question: What about the “Farrowing rate (%), subsequent performance” value (sows (PIC); [3]) of the same molecule?
Answer: The value was 90.91%.

Question: And the “Activity of superoxide dismutase (SOD) in serum of sows” value (from here on “Activity … of sows”) (sows and piglets; Breeding, Group 2: vitamin E 50/75 mg/kg diet)?
Answer: The value was 71.43 U/ml.

Question: What about the “Activity … of sows” value (sows and piglets; Breeding, Group 3: vitamin E 100/150 mg/kg diet) of the same molecule?
Answer: The value was 73.28 U/ml.

Question: And the “Activity … of sows” value (sows and piglets; Farrowing, Group 2: vitamin E 50/75 mg/kg diet)?
Answer: Its value is 77.14^B U/ml.

Question: And the “Activity … of sows” value (sows and piglets; Farrowing, Group 3: vitamin E 100/150 mg/kg diet)?
Answer: Its value is 79.60^AB U/ml.

Question: And the “Activity … of sows” value (sows and piglets; Weaning, Group 2: vitamin E 50/75 mg/kg diet)?
Answer: The value was 79.50^C U/ml.

Question: What about the “Activity … of sows” value (sows and piglets; Weaning, Group 3: vitamin E 100/150 mg/kg diet) of the same molecule?
Answer: The value was 90.93^B U/ml.

Question: And the “Activity of superoxide dismutase (SOD) in serum of piglets” value (sows and piglets; Group 2: vitamin E 50/75 mg/kg sow diet)?
Answer: Its value is 100.61^B U/ml.

Question: And the “Activity of superoxide dismutase (SOD) in serum of piglets” value (sows and piglets; Group 3: vitamin E 100/150 mg/kg sow diet)?
Answer: Its value is 129.54^Ab U/ml.

Question: What about the “Chick Weight” value ([1]; at hatch) of the same molecule?
Answer: Its value is 42.4 g.

Question: What about the “Chick Weight” value ([1]; dissected chickens) of the same molecule?
Answer: The value was 41.3 g.

Question: What about the “Chick length” value ([1]; dissected chickens) of the same molecule?
Answer: The value was 17.9 cm.

Question: And the “Relative Assymetrie (shank)” value ([1]; dissected chickens)?
Answer: The value was 1.59.

Question: And the “YFBM (yolk free body mass)” value ([1]; dissected chickens)?
Answer: The value was 36.2 g.

Question: What about the “Yolk weight” value ([1]; dissected chickens) of the same molecule?
Answer: The value was 4.92 g.

Question: What about the “Relative Chick Weight^1” value ([1]; dissected chickens, expressed as percentage of average egg weight) of the same molecule?
Answer: Its value is 70.7%.

Question: What about the “Relative Chick Weight^2” value ([1]; dissected chickens, expressed as percentage of chick weight) of the same molecule?
Answer: Its value is 11.8%.

Question: And the Fertility [1, 4]?
Answer: Its Fertility is 92.6%.

Question: What about the Hatchability of fertile [1, 4] of the same molecule?
Answer: The Hatchability of fertile was 95.6%.

Question: What about the Hatchability of total [1, 4] of the same molecule?
Answer: Its Hatchability of total is 88.6%.

Question: What about the “Relative chick weight” value ([1]; expressed as percentage of average egg weight) of the same molecule?
Answer: Its value is 72.5%.
